For 1 compound, Ki results are on record in PMC5360062, “Comparative insights into the saccharification potentials of a relatively unexplored but robust Penicillium funiculosum glycoside hydrolase 7 cellobiohydrolase” (Biotechnology for Biofuels, 2017).

The assay has as its target T1, PfCBH1 (GH7 cellobiohydrolase 1).
T1 construct: natively purified enzyme from the secretome
Description: inhibition of pNPL hydrolysis by purified enzyme, Michaelis-Menten/Lineweaver-Burk; IC50 […]. It counts as biochemical, Talaromyces funiculosus (Penicillium funiculosum).

Take `OC[C@H]1O[C@@H](O[C@H]2[C@H](O)[C@@H](O)C(O)O[C@@H]2CO)[C@H](O)[C@@H](O)[C@@H]1O` (stereo partly shown) [G2, cellobiose]: the Ki was 760 ± 54 µM.
